Measured values taken from US20080031968A1, “Methods for increasing cellular energy expenditure” (priority 2005, published 2008).

Tests used:
ob/ob mice = experiment: GW4064 treatment of ob/ob mice, serum TG; format: in vivo, mouse; settings: chow-fed ob/ob mice, 1 week, intraperitoneal 10 mg/kg daily
Method: Male C57BL/6J, KK-Ay, and ob/ob (C57BL/6J background) mice, 6-10 weeks of age, were obtained from Elevage Janvier (Le Genest St. Isle, France), CLEA Japan Inc. (Tokyo, Japan), and The Jackson Laboratory (Bar Harbor, Me., USA), respectively. All mice were maintained in a temperature-controlled (23° C.) facility with a 12-hour light/dark cycle and were given free access to food and water. The study protocols were approved by the institutional review boards. The body weight and food intake were measured every second day. The control and high-fat diet was obtained from UAR (Villemoisson sur Orge, France). The control diet (EQ12310) contained 16.8% protein, 73.5% carbohydrate, and 4.8% fat, whereas the high-fat diet (EQ/ID12309) contained 23.0% protein, 35.5% carbohydrate, and 35.9% fat. For treatment with bile acids, mice were fed diets with 0.5% (w/w) CA. The mice were fasted 4 hours before harvesting blood for subsequent lipid measurements, and tissues for RNA isolation, lipid measurements, and histology. Male SHP−/−mice and littermate SHP+/+ controls (C57/BL6-A129/SvJ mixed strain) of 8 weeks were fed the CA diet as just described or gavaged with GW4064 dissolved in corn oil at 30 mg/kg. […]
Serum total cholesterol, TGs, and lipoprotein cholesterol and TG profiles were measured as described (Rocchi, et al., Mol Cell. 8:737-747 (2001); Picard, et al., Cell 111:931-941 (2002)). […]

HSMM [1] = experiment: D2 activity in human skeletal muscle myoblasts; format: cell-based; settings: 16 h incubation
Method: HSMM were obtained from Cambrex (Walkersville, Md.) and were cultured according to the suppliers instructions. D2 activity measurements were performed after a 16 h incubation with the indicated compounds. For the cAMP measurements, cells were preincubated 12 h in Opti-MEM (Life Technologies, Cergy Pontoise, France), supplemented with 1 mM IBMX. Then medium was changed and cells were incubated for another 1 h in Opti-MEM with 1 mM IBMX, after which the medium was replaced for Opti-MEM with 1 mM IBMX and the indicated compounds. After 30 minutes the cells were lysed for cAMP analysis.

C57BL/6J mice = experiment: Diet-induced obesity in C57BL/6J mice; format: in vivo, mouse
Method: Male C57BL/6J and KK-Ay mice, 6-7 weeks of age, were obtained from Charles River Laboratories France (l'Arbresle, France) and CLEA Japan Inc. (Tokyo, Japan), respectively. […] All mice were maintained in a temperature-controlled (23° C.) facility with a 12 h light/dark cycle and were given free access to food and water. The control and high-fat diet was obtained from UAR (Villemoison surOrge, France). […] GW4064 was suspended in peanut oil and mixed with the high fat diet at a concentration of 180 mg per kg of food. […] The mice were fasted 4 h before harvesting blood for subsequent blood measurements, and tissues for RNA isolation, lipid measurements and histology. Oxygen consumption was measured using the Oxymax apparatus (Columbus Instruments, Columbus, Ohio).
(§1) An OGTT was performed in animals that were fasted overnight. Glucose was administered by gavage at a dose of 2 g/kg. An IPITT was done in 4 h fasted animals. Insulin was injected at a dose of 0.75 U/kg. Glucose quantification was done with the Maxi Kit Glucometer 4 (Bayer Diagnostic, Puteaux, France) or Glucose RTU (bioMérieux Inc., Marcy l'Etoile, France). Plasma insulin concentrations were measured using ELISA (Cristal Chem Inc., Downers Grove, Ill.). Nonesterified fatty acids, triglycerides, ketone bodies, BA and total cholesterol were determined by enzymatic assays (Roche, Mannheim, Germany). cAMP was measured using the cAMP-Screen system (Applied Biosystems, Bedford, Mass.).
Pieces of mouse tissues were fixed in Bouin's solution, dehydrated in ethanol, embedded in paraffin, and cut at a thickness of 5 μm. Sections were deparaffinized, rehydrated, and stained with haematoxylin and eosin. Transmission electron microscopy was then performed.

BAT of C57BL/6J mice = experiment: BAT gene expression by microarray and Q-RT-PCR; format: in vivo, mouse; settings: GW4064 treatment
Method: For microarray analysis, RNA was isolated from BAT using the RNeasy mini kit (QIAGEN, Courtaboeuf, France). Equal amounts of RNA from mice in each group were pooled (n=3 or 4 mice) and used for cDNA synthesis. After second-strand cDNA synthesis (Life Technologies, Cergy Pontoise, France), in vitro transcription was performed with biotinylated UTP and CTP (Enzo Diagnostics, Farmingdale, N.Y.). Fragmented cRNA samples were hybridized to the Affymetrix MOE430A microarray. The raw data was analyzed using the Microarray Suite Software version 5.0 (MAS5.0, Affymetrix, Santa Clara, Calif.).

BAT cells = experiment: Isolated mouse BAT cells, D2 mRNA, D2 activity and cAMP; format: cell-based; settings: BAT cells
Method: as §1

SHP+/+ and SHP-/- mice = experiment: FXR agonists in SHP+/+ and SHP-/- mice; format: in vivo, mouse; settings: for hepatic expression of SREBP-1c, ME, CYP7A1 and ANGPTL3: 1-day treatment
Method: (§2) Male C57BL/6J, KK-Ay, and ob/ob (C57BL/6J background) mice, 6-10 weeks of age, were obtained from Elevage Janvier (Le Genest St. Isle, France), CLEA Japan Inc. (Tokyo, Japan), and The Jackson Laboratory (Bar Harbor, Me., USA), respectively. All mice were maintained in a temperature-controlled (23° C.) facility with a 12-hour light/dark cycle and were given free access to food and water. The study protocols were approved by the institutional review boards. The body weight and food intake were measured every second day. The control and high-fat diet was obtained from UAR (Villemoisson sur Orge, France). […] The mice were fasted 4 hours before harvesting blood for subsequent lipid measurements, and tissues for RNA isolation, lipid measurements, and histology.

rats = rats treated for 7 days; cited from earlier work
HSMM [2] = experiment: cAMP levels in human skeletal muscle myoblasts; format: cell-based; settings: 1 mM IBMX, 30 minutes
Method: HSMM were obtained from Cambrex (Walkersville, Md.) and were cultured according to the suppliers instructions. […] For the cAMP measurements, cells were preincubated 12 h in Opti-MEM (Life Technologies, Cergy Pontoise, France), supplemented with 1 mM IBMX. Then medium was changed and cells were incubated for another 1 h in Opti-MEM with 1 mM IBMX, after which the medium was replaced for Opti-MEM with 1 mM IBMX and the indicated compounds. After 30 minutes the cells were lysed for cAMP analysis.

KK-Ay mice [3] = experiment: In vivo VLDL TG production (Tyloxapol) in KK-Ay mice; design: species or system mouse; settings: 1-week administration of GW4064
KK-Ay mice [4] = experiment: CA or GW4064 treatment of KK-Ay mice, serum lipids; format: in vivo, mouse; settings: chow-fed KK-Ay mice, 1 week, intraperitoneal 10 mg/kg daily
Method: as §2
For measurement of liver TGs and cholesterol content, a liver was homogenized in chloroform/methanol (2:1 v/v) using a Polytron tissue grinder (Kinematica AG, Luzern, Switzerland). Lipid extracts were prepared by the classical Folch method. Extracts were dried under N2 flow and resuspended in isopropanol.

CC(C)c1onc(-c2c(Cl)cccc2Cl)c1COc1ccc(/C=C/c2cccc(C(=O)O)c2)c(Cl)c1 [GW4064]
serum TG levels (ob/ob mice): potently lowered | D2 activity (HSMM [1]): did not induce | effect against diet-induced obesity (C57BL/6J mice; high fat diet supplemented with GW4064, 15 mg/kg daily): no protective effect | body weight gain (C57BL/6J mice; mice on a high fat diet with GW4064): significantly increased | thermogenic gene response (BAT of C57BL/6J mice): did not result in an induction | cAMP levels (BAT cells): did not increase | serum TGs (SHP+/+ and SHP-/- mice; SHP+/+ mice, 0, 3 and 7 days): significantly lowered | hepatic expression of SREBP-1c, ME, CYP7A1 and ANGPTL3 (SHP+/+ and SHP-/- mice; SHP+/+ mice): significantly reduced | decrease in serum TGs (SHP+/+ and SHP-/- mice; SHP-/- mice): completely abolished | hepatic expression of SREBP-1c, ME, CYP7A1 and ANGPTL3 (SHP+/+ and SHP-/- mice; SHP-/- mice): no decrease | plasma TG (rats): decreased | cAMP levels (HSMM [2]): did not increase | VLDL secretion (KK-Ay mice [3]): significantly lowered | serum TG levels (KK-Ay mice [4]): potently lowered
